Data reported in ChEMBL document CHEMBL1136903, “Spiroimidazolidinone NPC1L1 inhibitors. 1: Discovery by 3D-similarity-based virtual screening” (Bioorg Med Chem Lett, 2009).
The source made the active and inactive calls. The rule behind the calls is not given here.

Experiments:
[1] = biological target: T1, NPC1-like intracellular cholesterol transporter 1 (Homo sapiens, UniProt Q9UHC9); assay: Displacement of [35S](2S,3S,4S,5R,6S)-6-(4-((2S,3R)-3-((S)-3-(4-fluorophenyl)-3-hydroxypropyl)-1-(4-(3-(methylsulfonamido)prop-1-ynyl)phenyl)-4-oxoazetidin-2-yl)phenoxy)-3,4,5-trihydroxytetrahydro-2H-pyran-2-carboxylic acid from NPC1L1 in human enterocyte brush border membrane
T1 sequence (Q9UHC9 whole entry): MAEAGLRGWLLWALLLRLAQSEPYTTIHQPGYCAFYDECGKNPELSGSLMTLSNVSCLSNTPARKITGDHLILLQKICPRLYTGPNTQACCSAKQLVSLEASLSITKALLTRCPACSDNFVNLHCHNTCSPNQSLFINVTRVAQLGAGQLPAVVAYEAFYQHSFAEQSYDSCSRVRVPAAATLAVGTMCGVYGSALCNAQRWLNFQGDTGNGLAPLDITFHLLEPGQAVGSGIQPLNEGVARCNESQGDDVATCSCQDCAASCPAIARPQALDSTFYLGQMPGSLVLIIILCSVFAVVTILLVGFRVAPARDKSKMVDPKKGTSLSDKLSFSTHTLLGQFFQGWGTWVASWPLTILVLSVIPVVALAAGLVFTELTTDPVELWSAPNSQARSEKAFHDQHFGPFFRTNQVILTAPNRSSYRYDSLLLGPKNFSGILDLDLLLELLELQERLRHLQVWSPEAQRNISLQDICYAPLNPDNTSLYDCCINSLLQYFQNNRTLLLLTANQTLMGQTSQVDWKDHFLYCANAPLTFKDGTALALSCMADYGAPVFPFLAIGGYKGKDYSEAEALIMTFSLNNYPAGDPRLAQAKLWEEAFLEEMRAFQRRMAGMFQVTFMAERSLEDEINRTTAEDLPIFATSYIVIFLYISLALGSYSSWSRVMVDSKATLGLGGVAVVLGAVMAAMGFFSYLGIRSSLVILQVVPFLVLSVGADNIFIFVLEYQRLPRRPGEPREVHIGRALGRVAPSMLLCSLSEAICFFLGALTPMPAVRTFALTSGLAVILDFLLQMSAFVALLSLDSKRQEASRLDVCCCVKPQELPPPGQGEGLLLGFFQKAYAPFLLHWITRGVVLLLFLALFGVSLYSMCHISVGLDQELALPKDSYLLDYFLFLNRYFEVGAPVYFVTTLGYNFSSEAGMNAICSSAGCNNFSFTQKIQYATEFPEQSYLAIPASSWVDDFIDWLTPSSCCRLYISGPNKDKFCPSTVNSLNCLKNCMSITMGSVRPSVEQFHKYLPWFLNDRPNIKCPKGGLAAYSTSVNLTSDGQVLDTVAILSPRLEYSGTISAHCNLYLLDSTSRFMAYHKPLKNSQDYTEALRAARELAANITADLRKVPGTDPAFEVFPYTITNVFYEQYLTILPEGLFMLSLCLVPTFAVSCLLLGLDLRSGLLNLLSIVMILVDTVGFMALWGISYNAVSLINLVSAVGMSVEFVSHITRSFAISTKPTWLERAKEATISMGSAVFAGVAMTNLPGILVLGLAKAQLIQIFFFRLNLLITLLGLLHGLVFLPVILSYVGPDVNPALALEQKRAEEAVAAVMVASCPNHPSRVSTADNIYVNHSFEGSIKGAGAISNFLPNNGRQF

[2] = biological target: T1, NPC1-like intracellular cholesterol transporter 1; assay: Displacement of [35S](2S,3S,4S,5R,6S)-6-(4-((2S,3R)-3-((S)-3-(4-fluorophenyl)-3-hydroxypropyl)-1-(4-(3-(methylsulfonamido)prop-1-ynyl)phenyl)-4-oxoazetidin-2-yl)phenoxy)-3,4,5-trihydroxytetrahydro-2H-pyran-2-carboxylic acid from human recombinant NPC1L1 expressed in HEK293 cells; type: cell-based
[3] = tested on: Mus musculus; assay: Inhibition of liver [3H]cholesterol absorption in C57BL/6 mouse at 0.2 ml in 0.25% methocel suspension, po dosed 30 mins before [3H]cholesterol administration measured after 1.5 to 5 hrs; type: functional, organism-based
[4] = tested on: Mus musculus; assay: Inhibition of plasma [3H]cholesterol absorption in C57BL/6 mouse at 0.2 ml in 0.25% methocel suspension, po dosed 30 mins before [3H]cholesterol administration measured after 1.5 to 5 hrs; type: functional, organism-based

| IC50 [1] | IC50 [2] | SMILES | inhibition [3] | inhibition [4] |
| --- | --- | --- | --- | --- |
| 300 nM | 300 nM | O=C(O)[C@H]1O[C@@H](Oc2ccc([C@@H]3[C@@H](CC[C@H](O)c4ccc(F)cc4)C(=O)N3c3ccc(F)cc3)cc2)[C@H](O)[C@@H](O)[C@@H]1O |  |  |
| 5300 nM | 660 nM | O=C([C@@H]1C[C@@H](c2ccccc2)CN1C(=O)c1ccccc1)N1CCC2(C=Cc3ccccc32)CC1 |  |  |
| 10000 nM | 2500 nM | CC(C)(C)c1ccc(C(=O)N2CCC3(CC2)C(=O)N(CC(=O)N2CCCCC2)CN3c2ccccc2)cc1 | inactive | inactive |
| 20 nM | 7 nM | CS(=O)(=O)NCC#CN1C(=O)[C@H](CC[C@H](O)c2ccc(F)cc2)[C@H]1c1ccc(O[C@@H]2O[C@H](C(=O)O)[C@@H](O)[C@H](O)[C@H]2O)cc1 |  |  |
